One experiment has as its system H3K4me3 in HGS2 cells. As to the kind of experiment: immunoblot of H3K4me3, HGS2. The following applies: HGS2, 10 μM, 72 hours. The format is cell-based, mouse. As to the method:
FIG. 6A-FIG. 6K show KDM5A inhibition promotes anti-tumor immune response in vivo. (FIG. 6A) Expression of H3K4me3, Kdm5a and a loading control b-actin in an independent second doxycycline-inducible shKdm5a ID8 clone treated with or without 2 μg/mL of doxycycline. (FIG. 6B) Same as FIG. 6A, but doxycycline-inducible shKdm5a ID8 cells were plated into 24 well plates and treated with 2 μg/mL of doxycycline the same day. Cells were incubated for 8 days. Relative cell viability was determined by colony formation assay. (FIG. 6C) Expression of H3K4me3, Kdm5a and a loading control b-actin in HGS2 cells treated 10 μM of CPI-455 or vehicle controls for 72 hours. […] Relative cell viability was determined by colony formation assay. (FIG. 6E-FIG. 6F) Bioluminescence signal was measured by IVIS system in indicated animal groups in the immunocompetent C57BL/6 mouse model once a week (FIG. 6E) and the survival of the indicated groups was determined by Kaplan-Meier survival curves (FIG. 6F) (n=5 mice per group). […] Ascites volumes produced from the indicated groups were quantified (FIG. 6H). n=5 mice per group. […] (FIG. 6J-FIG. 6K) Bioluminescence signal was measured by IVIS system in indicated animal groups in the immunocompromised NSG mouse model once a week (FIG. 6J), or examined for Kaplan-Meier survival curves for the indicated groups (FIG. 6K). […]
(In general: In western blotting, separated proteins are transferred to a membrane and probed.)

For a further experiment, the system named is H2-K1 on HGS2 cells. As to the kind of experiment: cell surface MHC class I H2-K1 by FACS, HGS2. The following applies: HGS2, in response to IFNγ. Type of experiment: cell-based, mouse. The text has this: FIG. 8A-FIG. 8K show KDM5A regulates antigen processing and presentation pathway. (FIG. 8A) Validation of Kdm5a knockout and upregulation of H3K4me3 in Kdm5a knockout ID8 cells by immunoblot. β-actin expression was used as a loading control. (FIG. 8B) GSEA KEGG enrichment analysis of differentially expressed genes (DEGs) between control and Kdm5a knockout ID8 cells. NES, normalized enrichment score. (FIG. 8C) Enrichment plot of GSEA for antigen processing and presentation pathway. […] (FIG. 8E) Expression of Kdm5a and a loading control β-actin in inducible Kdm5a knockdown HGS2 cells with or without doxycycline treatment determined by immunoblot. (FIG. 8F) Cell surface expression of H2-K1 in HGS2 cells with or without inducible Kdm5a knockdown stimulated with IFNy was determined by FACS analysis. (FIG. 8G) Quantification of FIG. 8F. (FIG. 8H) Cell surface expression of H2-K1 in HGS2 cells treated with or without CPI455 and stimulated with IFNy was determined by FACS analysis. (FIG. 8I) Quantification of FIG. 8H; (FIG. 8J) Correlation between CD8A and HLA-A or HLA-B expression based on RNA-seq analysis in the TCGA HGSOC dataset. […] Data represent mean +SEM; P values were calculated by using a two-tailed Student t test except in FIG. 8J and FIG. 8K by using Pearson r analysis and FIG. 8B and FIG. 8C by using GSEA. […]

With CPI-455, the H3K4me3 levels entry with H3K4me3 in HGS2 cells is listed as “increase H3K4me3 levels”. The “MHC class I presence on cell surface” value in the experiment with H2-K1 on HGS2 cells is reported as “increased MHC class I presence on cell surface”.

Values taken from patent US20240139197A1, “INHIBITION OF KDM5A FOR PROMOTING ANTIGEN PRESENTATION, INCREASING CD8+ T CELL INFILTRATION AND BOOSTING ANTI-TUMOR IMMUNE RESPONSE” (The Wistar Institute of Anatomy and Biology, priority 2022, published 2024).
